Values quoted from earlier work as cited in US20160158203A1, “METHODS OF TREATMENT WITH BIOAVAILABLE COMPOSITIONS OF METAXALONE COMPRISING NONVOLATILE LIQUIDS” (priority 2004, published 2016).

Conditions: as reviewed in U.S. Pat. Nos. 6,407,128 and 6,683,102

Cc1cc(C)cc(OCC2CNC(=O)O2)c1 (stereo not shown) [metaxalone, 5-[(3,5-dimethylphenoxy)methyl]-2 oxazolidinone]
Aqueous solubility (description): essentially water-insoluble
